From patent publication US9169254B2, “Spiroimidazolone derivative” (Chugai Seiyaku Kabushiki Kaisha, priority 2009, dated 2015)

These molecules were tested against T1, human PTH1 receptor (Homo sapiens, UniProt Q03431) (assay: In vitro cAMP signal activity in HKRK-B7 cells (LLC-PK1 cells overexpressing the human PTH1 receptor)). Settings: HKRK-B7 cells; compound at 1×10^−3 M; […]; 0.1 µM.
T1 sequence (Q03431 27-593): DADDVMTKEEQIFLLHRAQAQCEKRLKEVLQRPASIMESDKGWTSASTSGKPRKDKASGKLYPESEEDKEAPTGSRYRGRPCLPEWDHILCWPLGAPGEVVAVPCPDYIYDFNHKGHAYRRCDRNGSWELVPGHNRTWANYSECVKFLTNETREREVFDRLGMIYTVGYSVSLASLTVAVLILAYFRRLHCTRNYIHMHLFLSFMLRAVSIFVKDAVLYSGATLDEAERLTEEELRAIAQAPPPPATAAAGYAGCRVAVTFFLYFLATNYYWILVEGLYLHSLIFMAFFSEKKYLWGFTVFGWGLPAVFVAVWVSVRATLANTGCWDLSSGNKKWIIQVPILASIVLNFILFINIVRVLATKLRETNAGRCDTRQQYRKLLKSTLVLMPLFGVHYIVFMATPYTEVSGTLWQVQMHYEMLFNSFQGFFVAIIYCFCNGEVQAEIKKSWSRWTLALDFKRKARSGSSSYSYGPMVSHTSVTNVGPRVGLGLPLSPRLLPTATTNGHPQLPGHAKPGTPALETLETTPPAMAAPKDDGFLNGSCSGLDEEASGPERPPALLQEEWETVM
Assay type: cell-based
`CC(=O)N(c1ccc(/C=C/S(=O)(=O)N2CCC3(CC2)N=C(c2cccc(OC(F)(F)F)c2)NC3=O)c(C)c1)C1CCN(C(=O)OC(C)(C)C)CC1` [Compound 604, 4-[acetyl-(3-methyl-4-{(E)-2-[4-oxo-2-(3-trifluoromethoxy-phenyl)-1,3,8-triaza-spiro[4.5]dec-1-ene-8-sulfonyl]-vinyl}-phenyl)-amino]-piperidine-1-carboxylic acid tert-butyl ester] was tested, and the “cAMP production activity (%)” value was 21%.

Same assay, conditions: HKRK-B7 cells; compound at 1×10^−3 M; cAMP produced as percentage of that produced by hPTH(1-34) at 100 nM
With `Cc1cc(C(=O)N2CCN(S(=O)(=O)N(C)C)CC2)ccc1CCS(=O)(=O)N1CCC2(CC1)N=C(c1cccc(C(F)(F)F)c1)NC2=O` [Compound 360, 4-(3-methyl-4-{2-[4-oxo-2-(3-trifluoromethyl-phenyl)-1,3,8-triaza-spiro[4.5]dec-1-ene-8-sulfonyl]-ethyl}-benzoyl)-piperazine-1-sulfonic acid dimethylamide] the “cAMP production activity (%)” value was 62%.
`O=C(NCCc1ccccc1)N1CCCC(C2=NC3(CCN(S(=O)(=O)CCc4cccc5ccccc45)CC3)C(=O)N2)C1` (centres unmarked) [Compound 455, 3-[8-(2-naphthalen-1-yl-ethanesulfonyl)-4-oxo-1,3,8-triaza-spiro[4.5]dec-1-en-2-yl]-piperidine-1-carboxylic acid phenethyl-amide] was tested, and the “cAMP production activity (%)” value was 31%.
`O=C1NC(CCc2cccc3ccccc23)=NC12CCN(S(=O)(=O)c1cccc(Cl)c1)CC2` [Compound 34, 8-(3-chloro-benzenesulfonyl)-2-(2-naphthalen-1-yl-ethyl)-1,3,8-triaza-spiro[4.5]dec-1-en-4-one] was tested, and the “cAMP production activity (%)” value was 16%.
In the case of `O=C1NC(c2cccc(C(F)(F)F)c2)=NC12CCN(S(=O)(=O)/C=C/c1ccc(NCCO)cc1C(F)(F)F)CC2` [Compound 211, 8-{(E)-2-[4-(2-hydroxy-ethylamino)-2-trifluoromethyl-phenyl]-ethenesulfonyl}-2-(3-trifluoromethyl-phenyl)-1,3,8-triaza-spiro[4.5]dec-1-en-4-one], the “cAMP production activity (%)” value is reported as 60%.
For `Cc1cc(C(=O)N2CC(F)C2)ccc1CCS(=O)(=O)N1CCC2(CC1)N=C(c1cccc(C(F)(F)F)c1)NC2=O` [Compound 379, 8-{2-[4-(3-fluoro-azetidine-1-carbonyl)-2-methyl-phenyl]-ethanesulfonyl}-2-(3-trifluoromethyl-phenyl)-1,3,8-triaza-spiro[4.5]dec-1-en-4-one], the “cAMP production activity (%)” value was 59%.
For `Cc1cc(N(CCF)C(N)=O)cc(C)c1/C=C/S(=O)(=O)N1CCC2(CC1)N=C(C1CCC(CCC(F)(F)F)CC1)NC2=O` (centres unmarked) [Compound 694, 1-[3,5-Dimethyl-4-((E)-2-{4-oxo-2-[4-(3,3,3-trifluoro-propyl)-cyclohexyl]-1,3,8-triaza-spiro[4.5]dec-1-ene-8-sulfonyl}-vinyl)-phenyl]-1-(2-fluoro-ethyl)-urea], the “cAMP production activity (%)” value was 77%.
In the case of `Cc1cc(S(=O)(=O)NC[C@@H](O)CO)ccc1/C=C/S(=O)(=O)N1CCC2(CC1)N=C(c1cccc(OC(F)(F)F)c1)NC2=O` [Compound 599, N—((R)-2,3-dihydroxy-propyl)-3-methyl-4-{(E)-2-[4-oxo-2-(3-trifluoromethoxy-phenyl)-1,3,8-triaza-spiro[4.5]dec-1-ene-8-sulfonyl]-vinyl}-benzenesulfonamide], the “cAMP production activity (%)” value is reported as 59%.
In the case of `COC(=O)CCC(=O)N1CCN(C(=O)c2cc(C)c(/C=C/S(=O)(=O)N3CCC4(CC3)N=C(c3cccc(OC(F)(F)F)c3)NC4=O)c(C)c2)CC1` [Compound 448, 4-[4-(3,5-dimethyl-4-{(E)-2-[4-oxo-2-(3-trifluoromethoxy-phenyl)-1,3,8-triaza-spiro[4.5]dec-1-ene-8-sulfonyl]-vinyl}-benzoyl)-piperazin-1-yl]-4-oxo-butyric acid methyl ester], the “cAMP production activity (%)” value is reported as 64%.
`Cc1cc2[nH]ccc2cc1CCS(=O)(=O)N1CCC2(CC1)N=C(C1CCCCC1)NC2=O` [Compound 837, 2-cyclohexyl-8-[2-(6-methyl-1H-indol-5-yl)-ethanesulfonyl]-1,3,8-triaza-spiro[4.5]dec-1-en-4-one] was tested, and the “cAMP production activity (%)” value was 66%.
With `Cc1cc(N2COCC2=O)ccc1/C=C/S(=O)(=O)N1CCC2(CC1)N=C(C1CCC(C)CC1)NC2=O` (centres unmarked) [Compound 577, 2-(4-methyl-cyclohexyl)-8-{(E)-2-[2-methyl-4-(4-oxo-oxazolidin-3-yl)-phenyl]-ethenesulfonyl}-1,3,8-triaza-spiro[4.5]dec-1-en-4-one] the “cAMP production activity (%)” value was 74%.
With `Cc1cc(N2C(=O)CNC2=O)ccc1CCS(=O)(=O)N1CCC2(CC1)N=C(C1CCC(CCC(F)F)CC1)NC2=O` (centres unmarked) [Compound 956, 3-[4-(2-{2-[4-(3,3-difluoro-propyl)-cyclohexyl]-4-oxo-1,3,8-triaza-spiro[4.5]dec-1-ene-8-sulfonyl}-ethyl)-3-methyl-phenyl]-imidazolidine-2,4-dione] the “cAMP production activity (%)” value was 87%.
For `CC[S+]([O-])CCCCCCC1=NC2(CCN(S(=O)(=O)CCc3c(C)cc(N(C)C(N)=O)cc3C)CC2)C(=O)N1` (centres unmarked) [Compound 1317, 1-(4-{2-[2-(6-ethanesulfinyl-hexyl)-4-oxo-1,3,8-triaza-spiro[4.5]dec-1-ene-8-sulfonyl]-ethyl}-3,5-dimethyl-phenyl)-1-methyl-urea], the “cAMP production activity (%)” value was 3.4%.
For `Cc1cc(C(=O)N2CCC(O)(CF)CC2)cc(C)c1CCS(=O)(=O)N1CCC2(CC1)N=C(c1ccc(F)c(C(F)(F)F)c1)NC2=O` [Compound 802, 8-{2-[4-(4-fluoromethyl-4-hydroxy-piperidine-1-carbonyl)-2,6-dimethyl-phenyl]-ethanesulfonyl}-2-(4-fluoro-3-trifluoromethyl-phenyl)-1,3,8-triaza-spiro[4.5]dec-1-en-4-one], the “cAMP production activity (%)” value was 100%.
In the case of `CCCCCCCCCC1=NC2(CCN(S(=O)(=O)CCc3c(C)cc(N4C(=O)CNC4=O)cc3C)CC2)C(=O)N1` [Compound 832, 3-{3,5-dimethyl-4-[2-(2-nonyl-4-oxo-1,3,8-triaza-spiro[4.5]dec-1-ene-8-sulfonyl)-ethyl]-phenyl}-imidazolidine-2,4-dione], the “cAMP production activity (%)” value is reported as 84%.
With `Cc1cc(C(=O)N2CCC(C)(O)CC2)cc(C)c1/C=C/S(=O)(=O)N1CCC2(CC1)N=C(c1ccc(F)c(C(F)F)c1)NC2=O` [Compound 1217, 2-(3-difluoromethyl-4-fluoro-phenyl)-8-{(E)-2-[4-(4-hydroxy-4-methyl-piperidine-1-carbonyl)-2,6-dimethyl-phenyl]-ethenesulfonyl}-1,3,8-triaza-spiro[4.5]dec-1-en-4-one] the “cAMP production activity (%)” value was 68%.
For `O=C1NC(C2CCCCC2)=NC12CCN(S(=O)(=O)/C=C/c1cccc3c1ccn3Cc1nccs1)CC2` [Compound 483, 2-cyclohexyl-8-[(E)-2-(1-thiazol-2-ylmethyl-1H-indol-4-yl)-ethenesulfonyl]-1,3,8-triaza-spiro[4.5]dec-1-en-4-one], the “cAMP production activity (%)” value was 41%.
`Cc1cc(C(=O)N(C)C)ccc1CCS(=O)(=O)N1CCC2(CC1)N=C(c1ccc(F)c(C(F)(F)F)c1)NC2=O` [Compound 107, 4-{2-[2-(4-fluoro-3-trifluoromethyl-phenyl)-4-oxo-1,3,8-triaza-spiro[4.5]dec-1-ene-8-sulfonyl]-ethyl}-3,N,N-trimethyl-benzamide] was tested, and the “cAMP production activity (%)” value was 110%.
`Cc1cc(C(=O)N2CCC(O)(CF)CC2)cc(C)c1/C=C/S(=O)(=O)N1CCC2(CC1)N=C(c1ccc(F)c(C(F)(F)F)c1)NC2=O` [Compound 641, 8-{(E)-2-[4-(4-fluoromethyl-4-hydroxy-piperidine-1-carbonyl)-2,6-dimethyl-phenyl]-ethenesulfonyl}-2-(4-fluoro-3-trifluoromethyl-phenyl)-1,3,8-triaza-spiro[4.5]dec-1-en-4-one] was tested, and the “cAMP production activity (%)” value was 85%.
`Cc1cc(N2CCOCC2=O)ccc1/C=C/S(=O)(=O)N1CCC2(CC1)N=C(c1cccc(OC(F)(F)F)c1)NC2=O` [Compound 617, 8-{(E)-2-[2-methyl-4-(3-oxo-morpholin-4-yl)-phenyl]-ethenesulfonyl}-2-(3-trifluoromethoxy-phenyl)-1,3,8-triaza-spiro[4.5]dec-1-en-4-one] was tested, and the “cAMP production activity (%)” value was 96%.
With `Cc1cc(NC(=O)[C@@H](N)CO)ccc1CCS(=O)(=O)N1CCC2(CC1)N=C(c1cccc(C(F)(F)F)c1)NC2=O` [Compound 886, (S)-2-amino-3-hydroxy-N-(3-methyl-4-{2-[4-oxo-2-(3-trifluoromethyl-phenyl)-1,3,8-triaza-spiro[4.5]dec-1-ene-8-sulfonyl]-ethyl}-phenyl)-propionamide] the “cAMP production activity (%)” value was 68%.
With `Cc1cc(N(C)C(N)=O)cc(C)c1CCS(=O)(=O)N1CCC2(CC1)N=C(c1cccc(OCCCC(F)(F)C(F)(F)F)c1)NC2=O` [Compound 1135, 1-[3,5-Dimethyl-4-(2-{4-oxo-2-[3-(4,4,5,5,5-pentafluoro-pentyloxy)-phenyl]-1,3,8-triaza-spiro[4.5]dec-1-ene-8-sulfonyl}-ethyl)-phenyl]-1-methyl-urea] the “cAMP production activity (%)” value was 84%.
For `Cc1cc(C(=O)N2CCC(C)(O)CC2)cc(C)c1/C=C/S(=O)(=O)N1CCC2(CC1)N=C(c1ccc(Cl)c(Cl)c1)NC2=O` [Compound 1185, 2-(3,4-Dichloro-phenyl)-8-{(E)-2-[4-(4-hydroxy-4-methyl-piperidine-1-carbonyl)-2,6-dimethyl-phenyl]-ethenesulfonyl}-1,3,8-triaza-spiro[4.5]dec-1-en-4-one], the “cAMP production activity (%)” value was 102%.
